Measurements taken from patent publication US20140005163A1 (NOVARTIS AG, priority 2010, published 2014).

Legend:
[1] = tested on: PKB Ser473 phosphorylation in Rat1-myr-HA-p110 beta cells; assay: Reverse protein array assay, PKB Ser473 phosphorylation in Rat1-myr-p110 beta cells; assay type: cell-based; conditions: 0.5 h, pAkt Ser473, 30 minutes incubation, read-out: p-PKB IC50
Outline: (§1)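 Rat1 cells expressing myristoylated HA-tagged p110 alpha, beta or delta were plated for at least 20 h, then exposed to 8-step serial compound dilutions (0.2% DMSO final) for 30 min at 37 °C. Lysates were spotted at four dilutions on protein microarrays, and relative fluorescence intensity of phospho-Ser473 PKB was calculated.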

[2] = tested on: S6 Ribosomal Protein phosphorylation Ser235/236 in TSC1 null mouse embryo fibroblast (MEF) cells; assay: Reverse protein array assay, S6 Ribosomal Protein phosphorylation Ser235/236 in TSC1 null MEF cells; assay type: cell-based; conditions: 1 h, pS6 ribosomal protein Ser235/236, 60 minutes incubation, read-out: p-S6 IC50
Outline: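 TSC1−/− MEFs, seeded and held ≥20 h at 37 °C/5% CO2, were exposed to 8-step serial compound dilutions (0.02% DMSO final; DMSO vehicle control) for 60 min at 37 °C. Cells were then lysed on ice for 10 min and lysates spotted onto reverse protein array chips.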

[3] = tested on: PKB Ser473 phosphorylation in Rat1-myr-HA-p110 alpha cells; assay: Reverse protein array assay, PKB Ser473 phosphorylation in Rat1-myr-p110 alpha cells; assay type: cell-based; conditions: 0.5 h, pAkt Ser473, 30 minutes compound incubation, read-out: p-PKB IC50
Outline: as §1

PI3K beta = target: T1, PI3K beta (Homo sapiens, UniProt P42338); assay: PI3K beta kinase assay (Kinase-Glo luminescence); assay type: biochemical
T1 construct: for the full-length p110-b subunit are generated and fused by overlapping PCR; p85(iSH2) fusion partner (see partner chain) (N); His tag (C); made in house; host or cells: baculovirus; Tn5 (Trichoplusia ni) or TiniPro insect cells
Outline: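 Residual ATP after a 60 min room-temperature reaction is quantified by Kinase-Glo luminescence. Enzyme: 25 nM BV-949 (p85 iSH2–linker–full-length p110β); substrates 1 μM ATP, 10 μg/mL PI; buffer Tris pH 7.5, MgCl2, NaCl, CHAPS, DTT. Eight concentrations per compound, four-parameter logistic IC50.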

T1 sequence (P42338 with tags, fused parts or gaps limits assumed): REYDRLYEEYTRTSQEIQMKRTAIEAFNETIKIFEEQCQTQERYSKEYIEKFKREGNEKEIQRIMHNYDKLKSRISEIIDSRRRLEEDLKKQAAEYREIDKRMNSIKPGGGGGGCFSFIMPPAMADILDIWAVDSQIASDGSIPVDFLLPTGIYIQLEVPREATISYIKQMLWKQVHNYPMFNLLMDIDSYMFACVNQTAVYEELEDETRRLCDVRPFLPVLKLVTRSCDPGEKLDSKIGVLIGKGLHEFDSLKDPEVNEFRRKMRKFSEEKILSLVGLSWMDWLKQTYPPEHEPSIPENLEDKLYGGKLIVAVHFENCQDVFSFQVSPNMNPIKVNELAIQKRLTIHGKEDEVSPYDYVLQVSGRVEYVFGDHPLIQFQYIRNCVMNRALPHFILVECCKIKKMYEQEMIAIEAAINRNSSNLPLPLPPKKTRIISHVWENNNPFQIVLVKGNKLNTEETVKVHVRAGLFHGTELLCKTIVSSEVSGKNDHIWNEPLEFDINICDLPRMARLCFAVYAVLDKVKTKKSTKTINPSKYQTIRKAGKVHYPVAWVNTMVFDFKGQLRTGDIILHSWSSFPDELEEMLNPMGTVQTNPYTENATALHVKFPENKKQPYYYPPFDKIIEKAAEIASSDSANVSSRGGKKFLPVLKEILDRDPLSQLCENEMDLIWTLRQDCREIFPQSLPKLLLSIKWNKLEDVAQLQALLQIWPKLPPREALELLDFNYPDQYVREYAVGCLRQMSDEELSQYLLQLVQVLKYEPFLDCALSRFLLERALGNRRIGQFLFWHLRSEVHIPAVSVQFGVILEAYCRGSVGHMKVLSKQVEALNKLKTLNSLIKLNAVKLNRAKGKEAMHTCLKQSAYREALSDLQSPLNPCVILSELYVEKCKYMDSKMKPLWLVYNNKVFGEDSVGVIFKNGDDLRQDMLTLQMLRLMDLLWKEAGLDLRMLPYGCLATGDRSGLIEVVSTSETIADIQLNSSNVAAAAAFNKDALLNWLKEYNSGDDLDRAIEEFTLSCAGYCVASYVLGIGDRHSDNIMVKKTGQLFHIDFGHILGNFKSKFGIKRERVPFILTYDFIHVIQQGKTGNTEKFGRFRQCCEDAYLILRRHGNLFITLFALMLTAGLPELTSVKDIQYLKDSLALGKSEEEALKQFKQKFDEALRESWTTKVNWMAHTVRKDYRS

Row | Compound | IC50 [1] [nM] | IC50 [3] [nM] | IC50 (PI3K beta) [nM] | IC50 [2] [nM]
1 | CNc1ncc(-c2ccc3ncc4c(c3c2)n(-c2c(C)nn(C)c2C)c(=O)n4C)cc1C(F)(F)F [Example 144.1, 3-Methyl-8-(6-methylamino-5-trifluoromethyl-pyridin-3-yl)-1-(1,3,5-trimethyl-1H-pyrazol-4-yl)-1,3-dihydro-imidazo[4,5-c]quinolin-2-one] | 49 | 26 | 80 | 2
2 | Cc1nn(C(C)C)cc1-n1c(=O)n(C)c2cnc3ccc(-c4cnc(N)c(CO)c4)cc3c21 [Example 169.1, 8-(6-Amino-5-hydroxymethyl-pyridin-3-yl)-1-(1-isopropyl-3-methyl-1H-pyrazol-4-yl)-3-methyl-1,3-dihydro-imidazo[4,5-c]quinolin-2-one] | 37 | 27 | 87 | 5.63
3 | Cc1nn(C)cc1-n1c(=O)n(C)c2cnc3ccc(-c4cccc(S(=O)(=O)N5CCCC5)c4)cc3c21 [Example 44, 1-(1,3-Dimethyl-1H-pyrazol-4-yl)-3-methyl-8-[3-(pyrrolidine-1-sulfonyl)-phenyl]-1,3-dihydro-imidazo[4,5-c]quinolin-2-one] | 42 | 41 | 218 | 80
4 | Cc1nn(C)cc1-n1c(=O)n(C)c2cnc3ccc(-c4ccnc(OC(C)C)c4)cc3c21 [Example 92, 1-(1,3-Dimethyl-1H-pyrazol-4-yl)-8-(2-isopropoxy-pyridin-4-yl)-3-methyl-1,3-dihydro-imidazo[4,5-c]quinolin-2-one] | 715 | 244 | 246 | 75
5 | CCOc1ccc(-c2ccc3ncc4c(c3c2)n(-c2c(C)nn(C)c2C)c(=O)n4C)cn1 [Example 3.3, 8-(6-Ethoxy-pyridin-3-yl)-3-methyl-1-(1,3,5-trimethyl-1H-pyrazol-4-yl)-1,3-dihydro-imidazo[4,5-c]quinolin-2-one] | 548 | 50 | 401 | 255
6 | COc1ccc(-c2ccc3ncc4[nH]c(=O)n(-c5cn(C)nc5C)c4c3c2)cn1 [Example 109, 1-(1,3-Dimethyl-1H-pyrazol-4-yl)-8-(6-methoxy-pyridin-3-yl)-1,3-dihydro-imidazo[4,5-c]quinolin-2-one] | 89 | 55 | 38 | 11
7 | Cc1nn(C)cc1-n1c(=O)n(C)c2cnc3ccc(-c4cnc(CO)c(OC(CF)CF)c4)cc3c21 [Example 192, 1-(1,3-Dimethyl-1H-pyrazol-4-yl)-8-[5-(2-fluoro-1-fluoromethyl-ethoxy)-6-hydroxymethyl-pyridin-3-yl]-3-methyl-1,3-dihydro-imidazo[4,5-c]quinolin-2-one] | 38 | 12 | 6 | 5
8 | Cc1cnn(C)c1-n1c(=O)n(C)c2cnc3ccc(-c4cncc(OC(C)C)c4)cc3c21 [Example 58.3, 1-(2,4-Dimethyl-2H-pyrazol-3-yl)-8-(5-isopropoxy-pyridin-3-yl)-3-methyl-1,3-dihydro-imidazo[4,5-c]quinolin-2-one] | 281 | 383 | 203 | 174

Compounds with a lower IC50 [1], results first:

Row | IC50 [1] [nM] | IC50 [3] [nM] | IC50 (PI3K beta) [nM] | Compound | IC50 [2] [nM]
9 | 9 | 5 | 44 | COc1ncc(-c2ccc3ncc4c(c3c2)n(-c2cn(C)nc2C)c(=O)n4C)cc1N [Example 127, 8-(5-Amino-6-methoxy-pyridin-3-yl)-1-(1,3-dimethyl-1H-pyrazol-4-yl)-3-methyl-1,3-dihydro-imidazo[4,5-c]quinolin-2-one] | 3
10 | < 5 | < 5 | 23 | COc1ncc(-c2ccc3ncc4c(c3c2)n(-c2cn(C)nc2Cl)c(=O)n4C)cc1N [Example 89, 8-(5-Amino-6-methoxy-pyridin-3-yl)-1-(3-chloro-1-methyl-1H-pyrazol-4-yl)-3-methyl-1,3-dihydro-imidazo[4,5-c]quinolin-2-one] | < 0.5
11 | 6 | < 5 | 35 | Cc1nn(C)cc1-n1c(=O)n(C)c2cnc3ccc(-c4cnc(N)c(Cl)c4)cc3c21 [Example 148.2, 8-(6-Amino-5-chloro-pyridin-3-yl)-1-(1,3-dimethyl-1H-pyrazol-4-yl)-3-methyl-1,3-dihydro-imidazo[4,5-c]quinolin-2-one] | 1
12 | 18 | < 5 | 206 | Cc1nn(C)cc1-n1c(=O)n(C)c2cnc3ccc(-c4cnc5c(ccn5C)c4)cc3c21 [Example 116, 1-(1,3-Dimethyl-1H-pyrazol-4-yl)-3-methyl-8-(1-methyl-1H-pyrrolo[2,3-b]pyridin-5-yl)-1,3-dihydro-imidazo[4,5-c]quinolin-2-one] | 6
13 | 13 | 9 | 146 | Cc1nn(C)cc1-n1c(=O)n(C)c2cnc3ccc(-c4cncc(NC5CCC5)c4)cc3c21 [Example 172, 8-(5-Cyclobutylamino-pyridin-3-yl)-1-(1,3-dimethyl-1H-pyrazol-4-yl)-3-methyl-1,3-dihydro-imidazo[4,5-c]quinolin-2-one] | 1
